# Source: US20040157738A1, “Novel oxygen containing fused cyclic derivatives and herbicidal, desiccant and defoliate compositions containing them” (ISHIHARA SANGYO KAISHA, LTD., priority 2003, published 2004)
# Experiments:
# Type in all cases: in vivo
# [1] = system: wheat (Triticum aestivum L.), TRZAX; test: Test Example 2: post-emergence (foliage treatment) herbicidal activity (growth controlling degree); details: 2.8 leaf stage
# In short: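 Herbicidal effect is rated by eye as growth control from 0 (like untreated plants) to 100 (plants killed). Compound, formulated as wettable powder or emulsifiable concentrate, is applied post-emergence to foliage in water at 500 L/ha with 0.1%(v/v) spreader.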
# [2] = system: barnyardgrass (Echinochloa oryzicola: ECHOR); test: Test Example 3: water application herbicidal activity, paddy (growth controlling degree); details: rate 63 g a.i./ha, water application under submerged condition, paddy pot, barnyardgrass at 0.5 leaf stage; for pest or weed control at 63 g/ha: Echinochloa oryzicola, 336 h
# Description: (§1) Paddy field soil was put into a {fraction (1/1,000,000)} ha pot, and seeds of barnyardgrass (Echinochloa oryzicola: ECHOR) and japanese bulrush (Scirpus juncoides: SCPJO) were sown and slightly covered with soil. Then the pot was left to stand still in a greenhouse in a state where the depth of flooding water was from 0.5 to 1 cm, and one day later, tubers of japanese ribbon wapato (Sagittaria pygmaea: SAGPY) were planted. Thereafter, the depth of flooding water was maintained at a level of from 3 to 4 cm, and when barnyardgrass and japanese bulrush reached a 0.5 leaf stage, an aqueous diluted solution of a wettable powder or emulsifiable concentrate having the compound of the present invention formulated in accordance with a usual formulation method, was uniformly applied under submerged condition by a pipette so that the dose of the active ingredient would be at a predetermined level. On the other hand, paddy filed soil was put into a {fraction (1/1,000,000)} ha pot and puddled and leveled, and the depth of flooding water was from 3 to 4 cm. One day later, rice (Oryza sativa L.: ORYSA) of 2 leaf stage was transplanted in a depth of 3 cm. On the 4th day after the transplantation, the compound of the present invention was applied in the same manner as described above. On the 14th day after the application of the herbicide, the growth of barnyardgrass, japanese burlush and japanese ribbon wapato was visually observed and on the 21st day after the application of the herbicide, the growth of rice was visually observed, and the herbicidal effects were evaluated by growth controlling degrees (%) ranging from 0 (equivalent to the untreated control) to 100 (complete kill), whereby the results shown in Table 13, were obtained. Compound Nos. in Table 13 correspond to Compound Nos. in Table 1 to 7 given hereinbefore.
# [3] = system: japanese bulrush (Scirpus juncoides: SCPJO); test: as above; details: rate 63 g a.i./ha, water application under submerged condition, paddy pot, japanese bulrush at 0.5 leaf stage; for pest or weed control at 63 g/ha: Schoenoplectiella juncoides, 336 h
# Description: as §1
# [4] = system: japanese ribbon wapato (Sagittaria pygmaea: SAGPY); test: as above; details: rate 63 g a.i./ha; water application under submerged condition, paddy pot; tubers of japanese ribbon wapato planted
# Description: as §1
# [5] = system: rice (Oryza sativa L.: ORYSA); test: as above; details: rate 63 g a.i./ha, paddy pot, rice of 2 leaf stage transplanted, treated on the 4th day after transplantation; for pest or weed control at 63 g/ha: Oryza sativa, 504 h
# Description: as §1
# [6] = system: wheat (Triticum aestivum L.): TRZAX; test: Test Example 1: pre-emergence herbicidal activity (growth controlling degree); details: 20th to 21st day after application
# In short: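 Plants were sown in pots of upland field soil and treated the following day with a water-diluted formulation (500 L/ha) by small sprayer before emergence. Herbicidal effect is given as percent growth control judged by eye 20 to 21 days later.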
SMILES,"growth controlling degree, TRZAX ([1]; 63 g a.i./ha) [%]",pest or weed control at 63 g/ha [2] [%],pest or weed control at 63 g/ha [3] [%],Water Application Herbicidal Activity SAGPY (growth controlling degree) [4] [%],pest or weed control at 63 g/ha [5] [%],"growth controlling degree, TRZAX ([6]; 125 g a.i./ha) [%]","growth controlling degree, TRZAX ([6]; 250 g a.i./ha) [%]",Water Application Herbicidal Activity ECHOR (growth controlling degree) [2] [%],Water Application Herbicidal Activity SCPJO (growth controlling degree) [3] [%],Water Application Herbicidal Activity ORYSA (growth controlling degree) [5] [%],"growth controlling degree, TRZAX ([1]; 31 g a.i./ha) [%]"
"Cn1nc(-c2c(F)cc(Cl)c3c2CCCO3)c(Cl)c1C(F)(F)F [Compound 1-2, 4-chloro-3-(8-chloro-6-fluoro-3,4-dihydro-2H-1-benzopyran-5-yl)-1-methyl-5-(trifluoromethyl)-1H-pyrazole]",30,40,30,0,20,–,–,–,–,–,–
CC1CCc2c(c(Cl)cc(F)c2-c2nn(C)c(C(F)(F)F)c2Cl)O1 (stereo not shown) [Compound 1-8],–,60,60,40,10,–,–,–,–,–,–
"Cn1nc(-c2c(F)cc(Cl)c3c2CCCO3)c(Cl)c1OC(F)F [Compound 1-33, 4-chloro-3-(8-chloro-6-fluoro-3,4-dihydro-2H-1-benzopyran-5-yl)-5-(difluoromethoxy)-1-methyl-1H-pyrazole]",98,100,100,100,80,70,–,–,–,–,–
CC1CCc2c(c(Cl)cc(F)c2-c2nn(C)c(OC(F)F)c2Cl)O1 (stereo not shown) [Compound 1-39],–,100,100,100,60,–,–,–,–,–,–
Cn1nc(-c2c(F)cc(Cl)c3c2CCC(c2ccccc2)O3)c(Cl)c1OC(F)F (stereo not shown) [Compound 1-42],–,100,98,100,35,–,0,–,–,–,–
"Fc1cc(Cl)c2c(c1-c1nn3c(c1Cl)CCCC3)CCCO2 [Compound 1-79, 3-chloro-2-(8-chloro-6-fluoro-3,4-dihydro-2H-1-benzopyran-5-yl)-4,5,6,7-tetrahydro-pyrazolo[1,5-a]pyridine]",–,100,100,100,40,–,10,–,–,–,–
CC1CCc2c(c(Cl)cc(F)c2-c2nn3c(c2Cl)CCCC3)O1 (stereo not shown) [Compound 1-85],–,–,–,100,–,–,–,100,98,10,–
CCCCCC1CCc2c(c(Cl)cc(F)c2-c2nn(C)c(OC(F)F)c2Cl)O1 (stereo not shown) [Compound 1-101],–,–,–,100,–,20,–,100,50,35,30
"Fc1cc(Cl)c2c(c1-c1ncc(C(F)(F)F)cc1Cl)CCCO2 [Compound 7-2, 3-chloro-2-(8-chloro-6-fluoro-3,4-dihydro-2H-1-benzopyran-5-yl)-5-(trifluoromethyl)-pyridine]",–,100,98,–,0,–,50,–,–,–,–
